Measurements as given in patent US11292788B2, “IL-17 and IFN-gamma inhibition for the treatment of autoimmune diseases and chronic inflammation” (Immunic AG, priority 2017, dated 2022).

Experiments:
Type in all cases: cell-based
IL-17A = test: Cytokine assay: IL-17A production by human PBMC stimulated with PHA; details: Homo sapiens, PBMC, IC50 class, read-out: IL-17A Inhib.
Procedure: (§1) Cytokine Assay: Analysis of Proliferation of and Cytokine Production by Human PBMC Stimulated with PHA
(§2) Peripheral blood mononuclear cells (PBMC) from healthy human donors were purified using Accuspin™ System-Histopaque-1077 (Sigma) according to the protocol recommended by the manufacturer. Purified PBMC were then washed twice with phosphate-buffered saline (PBS) and resuspended in RPMI1640 culture medium supplemented with 10% dialyzed heat inactivated fetal calf serum, 1.5 mM L-glutamine, 100 U penicillin/ml, and […] (all from PAN Biotech, Aidenbach, Germany). For stimulation, PBMC were seeded at 1×10^5 cells/well, activated with 2 μg/ml phytohaemagglutinin (PHA, Sigma) and incubated with the test compounds for 48 hours. IL-17A, IL-17F and INF-γ were then determined in the culture supernatant using a Luminex BioPlex system, following the manufacturer's instructions (BioRad, Munich, Germany). For screening, compounds were used at 10, 1, 0.1 and 0.01 μM. To determine the IC50, compounds were titrated semilogarithmically.
(§3) Cytokines were determined in the aforementioned culture supernatant using the following methods: IL-17A was measured using the human homodimer IL-17A ELISA Ready Set Go Kit from eBioscience (Frankfurt, Germany); IL-17F using the human IL-17F ELI-Pair from Hölzel DiagnosticaGmBH (Köln, Germany); and IFN-γ using the OptEIA human IFN-g ELISA from BD Bioscience (Heidelberg, Germany), all following the manufacturer's instructions.

IL-17F = test: Cytokine assay: IL-17F production by human PBMC stimulated with PHA; details: Homo sapiens, PBMC, IC50 class, read-out: IL-17F Inhib.
Procedure: as §1, §2, §3

INF-γ = test: Cytokine assay: INF-γ production by human PBMC stimulated with PHA; details: Homo sapiens, PBMC, IC50 class, read-out: IFN-gamma Inhib.
Procedure: as §1, §2, §3

Structure (SMILES) | IC50 (IL-17A) | IC50 (IL-17F) | IC50 (INF-γ)
COc1ccccc1-c1noc(-c2cnn(CC(C)(C)O)c2C(F)(F)F)c1-c1ncccn1 [Example 114, 1-{4-[3-(2-methoxyphenyl)-4-(pyrimidin-2-yl)-1,2-oxazol-5-yl]-5-(trifluoromethyl)-1H-pyrazol-1-yl}-2-methylpropan-2-ol] | ≥ 5000 nM | ≥ 5000 nM | 500 to 5000 nM
COc1ccccc1-c1noc(-c2cnn(CC(C)(C)O)c2C(F)(F)F)c1-c1ccncn1 [Example 116, 1-{4-[3-(2-methoxyphenyl)-4-(pyrimidin-4-yl)-1,2-oxazol-5-yl]-5-(trifluoromethyl)-1H-pyrazol-1-yl}-2-methylpropan-2-ol] | ≥ 5000 nM | ≥ 5000 nM | 500 to 5000 nM
COc1cccc(-c2noc(-c3cnn(C[C@@H](C)O)c3C(F)(F)F)c2-c2ncccn2)c1Cl [Example 117, (2R)-1-{4-[3-(2-chloro-3-methoxyphenyl)-4-(pyrimidin-2-yl)-1,2-oxazol-5-yl]-5-(trifluoromethyl)-1H-pyrazol-1-yl}propan-2-ol] | 500 to 5000 nM | 500 to 5000 nM | 50 to 500 nM
COc1cccc(-c2noc(-c3cnn(C[C@@H](C)O)c3C(F)(F)F)c2-c2ccncn2)c1Cl [Example 119, (2R)-1-{4-[3-(2-chloro-3-methoxyphenyl)-4-(pyrimidin-4-yl)-1,2-oxazol-5-yl]-5-(trifluoromethyl)-1H-pyrazol-1-yl}propan-2-ol] | 500 to 5000 nM | 500 to 5000 nM | 50 to 500 nM
COc1cccc(-c2noc(-c3cnn(CC(C)(C)O)c3C(F)(F)F)c2-c2ccncn2)c1Cl [Example 120, 1-{4-[3-(2-chloro-3-methoxyphenyl)-4-(pyrimidin-4-yl)-1,2-oxazol-5-yl]-5-(trifluoromethyl)-1H-pyrazol-1-yl}-2-methylpropan-2-ol] | 500 to 5000 nM | ≥ 5000 nM | 500 to 5000 nM
C[C@@H](O)Cn1ncc(-c2onc(-c3cccc(C(=O)N4CCOCC4)c3Cl)c2-c2ccncn2)c1C(F)(F)F [Example 154, (R)-(2-chloro-3-(5-(1-(2-hydroxypropyl)-5-(trifluoromethyl)-1H-pyrazol-4-yl)-4-(pyrimidin-4-yl)isoxazol-3-yl)phenyl) (morpholino)methanone] | 500 to 5000 nM | ≥ 5000 nM | 50 to 500 nM
CCNC(=O)c1cccc(-c2noc(-c3cnn(C[C@@H](C)O)c3C(F)(F)F)c2-c2ccncn2)c1Cl [Example 156, (R)-2-chloro-N-ethyl-3-(5-(1-(2-hydroxypropyl)-5-(trifluoromethyl)-1H-pyrazol-4-yl)-4-(pyrimidin-4-yl)isoxazol-3-yl)benzamide] | ≥ 5000 nM | ≥ 5000 nM | 500 to 5000 nM
CC(C)NC(=O)c1cccc(-c2noc(-c3cnn(C[C@@H](C)O)c3C(F)(F)F)c2-c2ccncn2)c1Cl [Example 157, (R)-2-chloro-3-(5-(1-(2-hydroxypropyl)-5-(trifluoromethyl)-1H-pyrazol-4-yl)-4-(pyrimidin-4-yl)isoxazol-3-yl)-N-isopropylbenzamide] | 500 to 5000 nM | 500 to 5000 nM | 50 to 500 nM

Continued, values first:

IC50 (IL-17A) | IC50 (IL-17F) | IC50 (INF-γ) | Structure (SMILES)
500 to 5000 nM | 500 to 5000 nM | 50 to 500 nM | COc1ccccc1-c1noc(-c2cnn(C[C@@H](C)O)c2C(F)(F)F)c1-c1ccncn1 [Example 115, (2R)-1-{4-[3-(2-methoxyphenyl)-4-(pyrimidin-4-yl)-1,2-oxazol-5-yl]-5-(trifluoromethyl)-1H-pyrazol-1-yl}propan-2-ol]
< 50 nM | < 50 nM | < 50 nM | CC(C)(O)CCn1ncc(-c2onc(-c3ccccc3Cl)c2-c2ncccn2)c1C(F)(F)F [Example 122, 4-{4-[3-(2-chlorophenyl)-4-(pyrimidin-2-yl)-1,2-oxazol-5-yl]-5-(trifluoromethyl)-1H-pyrazol-1-yl}-2-methylbutan-2-ol]
50 to 500 nM | 50 to 500 nM | 500 to 5000 nM | CC(C)(O)CCn1ncc(-c2onc(-c3cccc(O)c3Cl)c2-c2ncccn2)c1C(F)(F)F [Example 129, 2-chloro-3-{5-[1-(3-hydroxy-3-methylbutyl)-5-(trifluoromethyl)-1H-pyrazol-4-yl]-4-(pyrimidin-2-yl)-1,2-oxazol-3-yl}phenol]
50 to 500 nM | 50 to 500 nM | 50 to 500 nM | CN1CCN(CCOc2cccc(-c3noc(-c4cnn(CCC(C)(C)O)c4C(F)(F)F)c3-c3ncccn3)c2Cl)CC1 [Example 136, 4-[4-(3-{2-chloro-3-[2-(4-methylpiperazin-1-yl)ethoxy]phenyl}-4-(pyrimidin-2-yl)-1,2-oxazol-5-yl)-5-(trifluoromethyl)-1H-pyrazol-1-yl]-2-methylbutan-2-ol]
50 to 500 nM | 50 to 500 nM | 50 to 500 nM | CN(C)CCCOc1cccc(-c2noc(-c3cnn(CCC(C)(C)O)c3C(F)(F)F)c2-c2ncccn2)c1Cl [Example 140, 4-[4-(3-{2-chloro-3-[3-(dimethylamino)propoxy]phenyl}-4-(pyrimidin-2-yl)-1,2-oxazol-5-yl)-5-(trifluoromethyl)-1H-pyrazol-1-yl]-2-methylbutan-2-ol]
50 to 500 nM | 50 to 500 nM | 50 to 500 nM | CC(C)(O)CCn1ncc(-c2onc(-c3cccc(OCCCN4CCCC4)c3Cl)c2-c2ncccn2)c1C(F)(F)F [Example 142, 4-[4-(3-{2-chloro-3-[3-(pyrrolidin-1-yl)propoxy]phenyl}-4-(pyrimidin-2-yl)-1,2-oxazol-5-yl)-5-(trifluoromethyl)-1H-pyrazol-1-yl]-2-methylbutan-2-ol]
< 50 nM | < 50 nM | < 50 nM | CCN(CC)CCCOc1cccc(-c2noc(-c3cnn(CCC(C)(C)O)c3C(F)(F)F)c2-c2ncccn2)c1Cl [Example 143, 4-[4-(3-{2-chloro-3-[3-(diethylamino)propoxy]phenyl}-4-(pyrimidin-2-yl)-1,2-oxazol-5-yl)-5-(trifluoromethyl)-1H-pyrazol-1-yl]-2-methylbutan-2-ol]
50 to 500 nM | 500 to 5000 nM | 50 to 500 nM | COC(=O)c1c(-c2cccc(OCCN(C)C)c2Cl)noc1-c1cnn(C[C@H](C)O)c1C(F)(F)F [Example 149, methyl 3-{2-chloro-3-[2-(dimethylamino)ethoxy]phenyl}-5-{1-[(2S)-2-hydroxypropyl]-5-(trifluoromethyl)-1H-pyrazol-4-yl}-1,2-oxazole-4-carboxylate]
50 to 500 nM | 50 to 500 nM | 50 to 500 nM | C[C@@H](O)Cn1ncc(-c2onc(-c3cccc(C(=O)NC4CCC4)c3Cl)c2-c2ccncn2)c1C(F)(F)F [Example 155, (R)-2-chloro-N-cyclobutyl-3-(5-(1-(2-hydroxypropyl)-5-(trifluoromethyl)-1H-pyrazol-4-yl)-4-(pyrimidin-4-yl)isoxazol-3-yl)benzamide]
50 to 500 nM | 50 to 500 nM | 50 to 500 nM | C[C@@H](O)Cn1ncc(-c2onc(-c3cccc(C(=O)N4CCC4)c3Cl)c2-c2ccncn2)c1C(F)(F)F [Example 158, (R)-(azetidin-1-yl)(2-chloro-3-(5-(1-(2-hydroxypropyl)-5-(trifluoromethyl)-1H-pyrazol-4-yl)-4-(pyrimidin-4-yl)isoxazol-3-yl)phenyl)methanone]
